Data as given in patent US20170217964A1, “AMINOTETRAHYDROPYRAN DERIVATIVE USED AS DIPEPTIDYL PEPTIDASEIV INHIBITOR” (FUJIAN BORO MEDICAL CO., LTD., priority 2014, published 2017).

Legend:
DPP-4 enzyme = target: T1, DPP-4 enzyme (Homo sapiens, UniProt P27487); assay: Test of the inhibition activity to the DPP-4 enzyme (fluorescence, substrate Gly-Pro-7-amido-4-methylcoumarin); assay type: biochemical; conditions: in vitro; compounds of the examples; read-out: DPP-4 inhibition ID50
T1 construct: purchased SIGMA
From the text: Test of the inhibition activity of the compound of the present invention to the DPP-4 enzyme: […]

[1] = stability test of human liver microsomes; assay type: in vitro ADME

T1 sequence (P27487 whole entry, species assumed): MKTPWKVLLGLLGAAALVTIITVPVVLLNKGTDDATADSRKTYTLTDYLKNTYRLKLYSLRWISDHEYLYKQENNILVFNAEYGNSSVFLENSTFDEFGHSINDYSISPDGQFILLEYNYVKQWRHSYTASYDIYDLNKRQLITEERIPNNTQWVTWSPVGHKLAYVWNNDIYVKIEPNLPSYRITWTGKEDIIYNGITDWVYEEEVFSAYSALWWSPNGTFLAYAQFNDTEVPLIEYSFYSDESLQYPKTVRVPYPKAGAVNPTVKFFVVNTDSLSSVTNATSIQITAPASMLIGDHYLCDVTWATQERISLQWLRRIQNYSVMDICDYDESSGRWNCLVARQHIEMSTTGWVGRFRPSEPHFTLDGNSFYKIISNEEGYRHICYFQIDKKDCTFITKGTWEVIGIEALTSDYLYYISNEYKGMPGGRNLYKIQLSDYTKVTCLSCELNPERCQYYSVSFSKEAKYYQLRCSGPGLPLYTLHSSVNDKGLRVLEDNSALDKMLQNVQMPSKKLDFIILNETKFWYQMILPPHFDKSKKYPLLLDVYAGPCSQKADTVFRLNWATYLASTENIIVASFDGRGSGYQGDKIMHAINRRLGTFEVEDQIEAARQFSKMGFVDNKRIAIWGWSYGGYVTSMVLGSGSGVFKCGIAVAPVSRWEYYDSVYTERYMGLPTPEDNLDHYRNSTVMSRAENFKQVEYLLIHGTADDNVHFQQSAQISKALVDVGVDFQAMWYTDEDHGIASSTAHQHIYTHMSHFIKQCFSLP

Row | Structure (SMILES) | IC50 (DPP-4 enzyme) [nM] | metabolism stability compared with MK-3102 [1]
1 | N[C@H]1C[C@@H](N2Cc3cn(S(=O)(=O)N4CCOCC4)nc3C2)CO[C@@H]1c1cc(F)ccc1F [Compound 1, (2R, 3S, 5R)-2-(2,5-difluorophenyl)-5-[2-(morpholinesulfonyl)-2,6-dihydropyrrolo[3,4,-c]pyrazol-5(4H)-yl]tetrahydro-2H-pyran-3-amine] | 0.5 | better metabolism stability
2 | N[C@H]1C[C@@H](N2Cc3cn(S(=O)(=O)N4CCCCC4)nc3C2)CO[C@@H]1c1cc(F)ccc1F [Compound 2, (2R, 3S, 5R)-2-(2,5-difluorophenyl)-5-[2-(piperidinesulfonyl)-2,6-dihydropyrrolo[3,4,-c]pyrazol-5(4H)-yl]tetrahydro-2H-pyran-3-amine] | 0.8 | 
3 | N[C@H]1C[C@@H](N2Cc3cn(S(=O)(=O)N4CCCC4)nc3C2)CO[C@@H]1c1cc(F)ccc1F [Compound 3] | 0.3 | 
4 | CN1CCN(S(=O)(=O)n2cc3c(n2)CN([C@H]2CO[C@H](c4cc(F)ccc4F)[C@@H](N)C2)C3)CC1 [Compound 4, (2R, 3S, 5R)-2-(2,5-difluorophenyl)-5-[2-(N-methylpiperazinesulfonyl)-2,6-dihydropyrrolo[3,4,-c]pyrazol-5(4H)-yl]tetrahydro-2H-pyran-3-amine] | 0.6 | better metabolism stability
5 | N[C@H]1C[C@@H](N2Cc3cn(S(=O)(=O)N4CCN(C5CCCC5)CC4)nc3C2)CO[C@@H]1c1cc(F)ccc1F [Compound 5, (2R, 3S, 5R)-2-(2,5-difluorophenyl)-5-[2-(4-cyclopentylpiperazine-1-yl-sulfonyl)-2,6-dihydropyrrolo[3,4,-c]pyrazol-5(4H)-yl]tetrahydro-2H-pyran-3-amine] | 0.2 | 
6 | N[C@H]1C[C@@H](N2Cc3cn(S(=O)(=O)N4CCC4)nc3C2)CO[C@@H]1c1cc(F)ccc1F [Compound 13, (2R, 3S, 5R)-2-(2,5-difluorophenyl)-5-[2-(azetidine-1-sulfonyl)-2,6-dihydropyrrolo[3,4,-c]pyrazol-5(4H)-yl]tetrahydro-2H-pyran-3-amine] | 0.5 | 
7 | CC1CCN(S(=O)(=O)n2cc3c(n2)CN([C@H]2CO[C@H](c4cc(F)ccc4F)[C@@H](N)C2)C3)CC1 [Compound 14] | 0.4 | 
8 | N[C@H]1C[C@@H](N2Cc3cn(S(=O)(=O)N4CC5CCCCC5C4)nc3C2)CO[C@@H]1c1cc(F)ccc1F (stereo partly drawn) [Compound 15, (2R, 3S, 5R)-2-(2,5-difluorophenyl)-5-[2-(perhydroindole-1 sulfonyl)-2,6-dihydropyrrolo[3,4,-c]pyrazol-5(4H)-yl]tetrahydro-2H-pyran-3-amine] | 0.7 | 
